Patent US8182794B2, “Sunless tanning products and processes” (Concept Laboratories, priority 2003, dated 2012)
“Also recorded” adds a separate entry of the source.

Test system: human skin
Experiment: Colorimeter (Minolta CR-10) L* a* b* readings of sunless tan on forearm skin
Type: in vivo
Settings: 5% additive with 5% DHA and 5% MSM; Table 1 series
Procedure: An equal amount of each formula solution (approximately 150 mg.) from Table 1 was applied to 2″×2″ adjacent sections of forearm, allowed to dry and covered with clothing for the duration of the testing. The application areas were visibly the same color prior to treatment with the solutions and this was confirmed via calorimeter readings. Readings were typically made 24-48 hours post application of the test solutions. Three calorimeter readings were made of each treatment area with a Minolta CR-10 adapted for human skin readings and the readings were averaged. All eight formulas shown in Table 1 were evaluated on several individuals with Fitzpatrick skin types I-III. Although the absolute values for the tanning responses differed between individuals, the relative differences between formulations in terms of tanning response were the same. Typical results of the testing of one subject were recorded in average L* a* b* color values and are shown in Table 2 along with baseline skin color. […]
The results shown in Table 12 were confirmed by several repeat experiments conducted on several relatively light-skin individuals (Fitzpatrick Type I-III). The data are based on calculation of the average increase in skin darkening based on skin color changes measured by the colorimeter “L” or light-dark value [(Δ L)]; the average increase in skin hue intensity measured simultaneously by both the colorimeter “a*” or red value and the colorimeter “b*” or yellow value (Δ√a^2+b^2); and, the average increase in total tan which adds the changes in darkness and hue increases [(Δ L)+Δ√a^2+b^2].

Row | Compound | effect of additive on tanning response of DHA and MSM
1 | OCCCCO [butylene glycol] | darker tanning responses; also recorded: significantly increase
2 | CCCC(O)CO (stereo not drawn) [pentylene glycol, 1,2-pentanediol] | darker tanning responses; also recorded: significantly increase
3 | CC(O)CO (stereo not drawn) [propylene glycol] | darker tanning responses
